# Assays:
# Format in all cases: cell-based, Mouse
# [1] = system: IL-6; test: IL-6 production (ELISA) in LPS-stimulated RAW264.7 cells; conditions: 20, 40, and 80 μM; 2 h pretreatment, LPS 500 ng/mL 20 h; concentration-dependent
# Procedure: Macrophages stimulated by pathogens and cytokines are activated and play an important role in regulating the immune response, inflammatory response, and metabolism. LPS-activated RAW264.7 cells were treated with 20, 40, or 80 μM of coumarin derivative 2 and cultured for 24 h, and the levels of TNF-α and IL-6 in the culture medium were analyzed.
# RAW264.7 cells were seeded into 96-well plates and cultured for 24 h. After 2 h of treatment with 20, 40, or 80 μM of coumarin compound derivative 2, the cells were incubated with LPS (500 ng/mL) for 20 h. ELISA kits (R & D Systems, Minneapolis, MN, USA) were used to collect and analyze the cell supernatants for TNF-α and IL-6.
# Figure 3 Effects of coumarin derivative 2 on IL-6 and TNF-α production and mRNA expression in LPS-stimulated RAW264.7 cells. (a) Effect of coumarin derivative 2 on TNF-α and IL-6 production in RAW264.7 cells. The RAW264.7 cells (1 × 10^5/well, 96-well plates) were pretreated with coumarin derivative 2 (20, 40, and 80 μM) for 2 h and incubated with LPS (500 ng/mL) for 20 h. An ELISA kit was used to analyze cell supernatants for TNF-α and IL-6. (b) Effect of coumarin derivative 2 on mRNA expression of IL-6 and TNF-α in RAW264.7 cells. […] IL-6 and TNF-α mRNA expression levels were measured via a real-time quantitative reverse transcription polymerase chain reaction.
# [2] = system: iNOS mRNA; test: iNOS mRNA expression (qRT-PCR) in LPS-stimulated RAW264.7 cells; conditions: 20, 40, and 80 μM; 2 h pretreatment, LPS 500 ng/mL 6 h
# Procedure: RAW264.7 cells were seeded into a 6-well plate (2 × 10^6 cells/well) and cultured for 24 h. The cells were treated with coumarin derivative 2 at 20, 40, and 80 μM and cultured for 2 h and with LPS (500 ng/mL) for 6 h.
# The cells were washed with phosphate-buffered saline (PBS) and lysed with the RNeasy Mini kit (Qiagen, Hilden, Germany) for RNA isolation. RNA was converted to cDNA using the AccuPower reverse transcriptase Premix Kit (Bioneer, Daejeon, Republic of Korea). A Power SYBR Green PCR Master Mix (Applied Biosystems, Waltham, MN, USA) was used to perform polymerase chain reaction amplification. Amplification conditions were selected within the Quant 3 PCR system (Applied Biosystems). The data were normalized to the amount of glyceraldehyde 3-phosphate dehydrogenase.
# Figure 4 Effect of coumarin derivative 2 on iNOS protein expression in LPS-stimulated RAW264.7 cells. (a) RAW264.7 cells (2.0 × 10^6 cells/6 cm dish) were pretreated with coumarin derivative 2 (20, 40, and 80 μM) for 2 h and incubated with LPS (500 ng/mL) for 20 h. Whole-cell lysates were then immunoblotted with the iNOS specific antibody. […] (c) RAW264.7 cells (2.0 × 10^6 cells/6 cm dish) were pretreated with coumarin derivative 2 (20, 40, and 80 μM) for 2 h and incubated with LPS (500 ng/mL) for 6 h. iNOS mRNA expression levels were measured via a real-time quantitative reverse transcription polymerase chain reaction. […]
# [3] = system: iNOS; test: iNOS protein expression (immunoblotting) in LPS-stimulated RAW264.7 cells; conditions: 20, 40, and 80 μM pretreatment 2 h; LPS 500 ng/mL 24 h
# Procedure: (§1) RAW264.7 cells were seeded into 6-well plates (2 × 10^6 cells/well) and incubated for 24 h. The cells were incubated with 20, 40, and 80 μM of coumarin derivative 2 for 2 h, and then LPS (500 ng/mL) was added for 30 min (for phosphorylation of ERK, JNK, p38, and p65) and 24 h (for protein expression of iNOS).
# The cells were washed with PBS and lysed with radioimmunoprecipitation assay buffer containing 1 mM dithiothreitol (Wako, Tokyo, Japan), phosphatase inhibitor cocktail, 1 mM phenylmethylsulfonylfluoride, 1 mM sodium orthovanadate (Sigma), and 10 mM β-glycerophosphate (Sigma). The extracted proteins were centrifuged at 13,000× g rpm, separated via sodium dodecyl sulfate polyacrylamide gel electrophoresis, and transferred to polyvinylidene fluoride membranes. […] For detection, the antibodies were developed with Super Signal® West Femto Substrate (ThermoFisher, Waltham, MN, USA) and analyzed on a Fusion Solo Chemiluminescence System (Vilber Lourmat, Paris, France) ECL detection system.
# Figure 4 Effect of coumarin derivative 2 on iNOS protein expression in LPS-stimulated RAW264.7 cells. […] (c) RAW264.7 cells (2.0 × 10^6 cells/6 cm dish) were pretreated with coumarin derivative 2 (20, 40, and 80 μM) for 2 h and incubated with LPS (500 ng/mL) for 6 h. iNOS mRNA expression levels were measured via a real-time quantitative reverse transcription polymerase chain reaction. […]
# [4] = system: ERK; test: LPS-induced phosphorylation of ERK (immunoblotting) in RAW264.7 cells; conditions: 20, 40, and 80 μM pretreatment 2 h; LPS 500 ng/mL 30 min
# Procedure: as §1
# (§2) The cells were washed with PBS and lysed with radioimmunoprecipitation assay buffer containing 1 mM dithiothreitol (Wako, Tokyo, Japan), phosphatase inhibitor cocktail, 1 mM phenylmethylsulfonylfluoride, 1 mM sodium orthovanadate (Sigma), and 10 mM β-glycerophosphate (Sigma). The extracted proteins were centrifuged at 13,000× g rpm, separated via sodium dodecyl sulfate polyacrylamide gel electrophoresis, and transferred to polyvinylidene fluoride membranes. Nonspecific proteins were blocked by adding 5% skim milk. After blocking, primary antibodies were incubated overnight at 4 °C. After washing with the PBS-T buffer, the secondary antibodies were treated at room temperature for 2 h. For detection, the antibodies were developed with Super Signal® West Femto Substrate (ThermoFisher, Waltham, MN, USA) and analyzed on a Fusion Solo Chemiluminescence System (Vilber Lourmat, Paris, France) ECL detection system.
# (§3) Figure 5 Inhibitory effects of coumarin derivative 2 on LPS-induced phosphorylation of MAPKs and NF-κB p65 in RAW264.7 cells. […]
# [5] = system: NF-κB p65; test: LPS-induced phosphorylation of NF-κB p65 (immunoblotting) in RAW264.7 cells; conditions: 20, 40, and 80 μM pretreatment 2 h; LPS 500 ng/mL 30 min
# Procedure: as §1, §2, §3
compound,measurement,setting,value
N#CC1=C(N)Oc2c(c(=O)oc3ccccc23)C1c1cccc(F)c1 (centres unmarked) [Coumarin derivative 2],LPS-induced IL-6 level,[1],significantly reduced
same,iNOS mRNA expression,[2],significantly suppressed
same,iNOS expression (immunoblot),[3],inhibited
same,Phosphorylation of ERK,[4],inhibited
same,p65 phosphorylation,[5],inhibited
